Reference: patent US20120245120A1, “ZINC SUCROSE OCTASULFATES, THEIR PREPARATION, AND PHARMACEUTICAL AND COSMETIC USES THEREOF” (PIERRE FABRE DERMO-COSMETIQUE, priority 2009, published 2012)

Tested on: keratinocyte cell lines HaCAT
Assay: In vitro cell migration assay (Oris Cell Migration Assay kit)
Format: cell-based, human
Parameters: Average OD: scale not given here
Details: for % activity/TGFβ / % activity/negative control / Average OD: HaCaT migration
Description: The purpose of this study was to assess the effect of zinc sucrose octasulfate on cell migration of keratinocyte cell lines HaCAT, using an Oris Cell Migration Assay Kit (Platypus Technologies). This study was carried out in comparison with potassium sucrose octasulfate, and sodium sucrose octasulfate.
Spontaneously immortalized human keratinocyte cell line HaCaT, frequently referred to in literature as a standard model.
The protocol used for the cell migration study is based on the use of a 96-well Oris Cell Migration Assay kit (Platypus Technologies-TEBU), providing miniaturization and quantification of this cell process.
The principle of this assay is to investigate the cell migration towards the centre of the well of a 96-well plate. A stopper is placed in some wells, in order to create a detection zone of 2 mm in diameter. Then the stoppers are removed after the cells have well adhered to the surface around them, thus allowing the cells to migrate towards the detection zone. The plates without the stoppers and with the active substances are incubated at 37° C. for 24 hours in DMEM 0% SVF. Following this, the amount of cells located in the zone where the stopper was, is analyzed, in order to assess cell migration. A mask restricts visualization and reading to cells located in this zone only. For each condition, the average for 4 to 8 wells is calculated.
The results are expressed as OD (proportional to the amount of migrated cells).
Percent activity with regard to the negative control is calculated as: […]
Percent activity with regard to TGFβ is calculated as: […]

[1] = Experiment 1, 1 μM, 24 hours at 37° C., DMEM 0% SVF, OD proportional to amount of migrated cells
[2] = Experiment 2, 1 μM, 24 hours at 37° C., DMEM 0% SVF, OD proportional to amount of migrated cells
[3] = summary statement, no concentration given
[4] = Experiment 1, 5 ng/mL, 24 hours, positive control
[5] = Experiment 2, 5 ng/mL, 24 hours, positive control

Row | Molecule | activity compared with the positive control TGFβ (in words) (1 μM vs TGFβ 5 ng/mL) | induction of keratinocyte migration (in words) (1 μM, both experiments) | % activity/TGFβ (Experiment 1, 1 μM, 24 hours) | % activity/negative control (Experiment 1, 1 μM, 24 hours) | Average OD [1] | % activity/TGFβ (Experiment 2, 1 μM, 24 hours) | % activity/negative control (Experiment 2, 1 μM, 24 hours) | Average OD [2] | induction of keratinocyte migration (in words) [3] | induction of keratinocyte migration (in words) (at the concentrations tested) | induction of keratinocyte migration (in words) (5 ng/mL, both experiments, positive control) | % activity/negative control [4] | Average OD [4] | % activity/negative control [5] | Average OD [5]
1 | zinc sucrose octasulfate [SOS-Zn] | as active as the positive control TGFβ | induces cell migration reproducibly | 128.3% | 350.0% | 306.9 | 90.7% | 176.0% | 417.8 | induces keratinocyte migration |  |  |  |  |  | 
2 | O=S(=O)([O-])OC[C@H]1O[C@@](COS(=O)(=O)[O-])(O[C@H]2O[C@H](COS(=O)(=O)[O-])[C@@H](OS(=O)(=O)[O-])[C@H](OS(=O)(=O)[O-])[C@H]2OS(=O)(=O)[O-])[C@@H](OS(=O)(=O)[O-])[C@@H]1OS(=O)(=O)[O-].[Na+].[Na+].[Na+].[Na+].[Na+].[Na+].[Na+].[Na+] [SOS-Na, Sodium sucrose octasulfate] |  |  | −34.6% | 32.6% | 28.6 | −47.1% | 59.9% | 142.3 | do not induce cell migration | do not induce keratinocyte migration |  |  |  |  | 
3 | O=S(=O)([O-])OC[C@H]1O[C@@](COS(=O)(=O)[O-])(O[C@H]2O[C@H](COS(=O)(=O)[O-])[C@@H](OS(=O)(=O)[O-])[C@H](OS(=O)(=O)[O-])[C@H]2OS(=O)(=O)[O-])[C@@H](OS(=O)(=O)[O-])[C@@H]1OS(=O)(=O)[O-].[K+].[K+].[K+].[K+].[K+].[K+].[K+].[K+] [SOS-K, Potassium sucrose octasulfate] |  |  | 6.9% | 113.5% | 99.5 | 42.2% | 135.3% | 321.3 | do not induce cell migration | do not induce keratinocyte migration |  |  |  |  | 
4 | TGFβ: Positive control: TGFβ1, polypeptide growth factor |  |  |  |  |  |  |  |  |  |  | induces keratinocyte migration reproducibly | 294.9% | 258.6 | 183.8% | 436.3
